Assay results published in patent US20250154172A1, “PRMT5 INHIBITORS AND USES THEREOF” (Gilead Sciences, Inc., priority 2023, published 2025).

Test system: HCT116 MTAP-deleted cell lines
Test: Cell viability assay for HCT116 isogenic pair (CellTitre-Glo, 7 days)
Type: cell-based
Details: Homo sapiens, HCT-116, 168 h, 7 days of treatment, cell line not given
Procedure: Control compounds were analyzed in parallel each time for quality control.
In Brief, on Day −1, a serial dilution of stock compounds in DMSO was performed using BioMek liquid handlers and dispensed using Echo acoustic dispenser into 384 well plates. Both tool compounds and sample compounds were spotted in the same plate for a dose response of PRMT5 inhibitors. Compound plates were stored as frozen until the cells were ready for seeding.
On Day 0, 100 HCT WT or HCT116 MTAP-deleted cells were seeded in compound-containing 384 well plates (50 μl per well) in RPMI 1640 media supplemented with 10% heat inactivated fetal bovine serum, Glutamax and penicillin streptomycin using EL460 liquid dispenser 5 μl cassette (BioTek, part no. 7170011). After equilibrating the plate in room temperature, the cells were incubated for 7 days inside the sealed incubator set at 37° C. with 90% humidity and 5% CO2.
On Day 7, the viability of cells was measured using a CTG assay kit (CellTitre-Glo; Promega cat no. G7573). Shortly, 40 μl per well of luminescent cell viability assay reagent were dispensed using EL460 liquid dispenser 5 μl cassette. CTG luminescence signal was measured using an EnVision plate reader (PerkinElmer) in accordance with manufacturer's instruction. The CCso values for each compound after 7 days of treatment were calculated using 4 parameter non-linear logistical curve fit.
For the cell viability assay ie CC50 shown in nM in Table 3.

Row | SMILES | CC50 [nM]
1 | C[C@H]1CN(C(=O)c2cc3c(cn2)nc(N)c2cnn(C)c23)[C@H]2c3ccc(Br)c(F)c3C[C@H]2O1 (single isomer, unassigned) [Example Ca-31] | 32
2 | Cn1ncc2c(N)nc3ccc(C(=O)N4CC[C@@H]5Oc6cc(C(F)(F)F)ccc6[C@@H]54)cc3c21 (racemic) [Example Ca-55, Rac-(4-amino-1-methyl-1H-pyrazolo[4,3-c]quinolin-8-yl)((3aS,8bS)-6-(trifluoromethyl)-2,3,3a,8b-tetrahydro-1H-benzofuro[3,2-b]pyrrol-1-yl)methanone] | 106
3 | C[C@@H]1C[C@@H]2Oc3cc(C(F)(F)F)ccc3[C@@H]2N(C(=O)c2cc3c(cn2)nc(N)c2cnn(C)c23)C1 [Example Ca-17, (4-amino-1-methyl-1H-pyrazolo[4,3-c][1,7]naphthyridin-8-yl)((3R,4aS,9bS)-3-methyl-7-(trifluoromethyl)-3,4,4a,9b-tetrahydrobenzofuro[3,2-b]pyridin-1(2H)-yl)methanone] | 7
4 | Cn1ncc2c(N)nc3cnc(C(=O)N4CCC[C@@H]5Oc6c(ccc(OC(F)(F)F)c6F)[C@@H]54)cc3c21 [Example Ca-7, (4-amino-1-methyl-1H-pyrazolo[4,3-c][1,7]naphthyridin-8-yl)((4aS,9bS)-6-fluoro-7-(trifluoromethoxy)-3,4,4a,9b-tetrahydrobenzofuro[3,2-b]pyridin-1(2H)-yl)methanone] | 13
5 | Cn1ncc2c(N)nc3cnc(C(=O)N4CCO[C@@H]5Cc6cc(Br)ccc6[C@@H]54)cc3c21 [Example Ca-33, (4-amino-1-methyl-1H-pyrazolo[4,3-c][1,7]naphthyridin-8-yl)((4aS,9aR)-7-bromo-2,3,9,9a-tetrahydroindeno[2,1-b][1,4]oxazin-4(4aH)-yl)methanone] | 9
6 | Cn1ncc2c(N)nc3cnc(C(=O)N4CCC[C@@H]5Oc6cc(OC(F)(F)F)ccc6[C@@H]54)cc3c21 [Example Ca-6, (4-amino-1-methyl-1H-pyrazolo[4,3-c][1,7]naphthyridin-8-yl)((4aS,9bS)-7-(trifluoromethoxy)-3,4,4a,9b-tetrahydrobenzofuro[3,2-b]pyridin-1(2H)-yl)methanone] | 8
7 | Cn1ncc2c(N)nc3cnc(C(=O)N4CCO[C@@H]5Cc6cc(C(F)(F)F)ccc6[C@@H]54)cc3c21 [Example Ca-54, (4-amino-1-methyl-1H-pyrazolo[4,3-c][1,7]naphthyridin-8-yl)((4aS,9aR)-7-(trifluoromethyl)-2,3,9,9a-tetrahydroindeno[2,1-b][1,4]oxazin-4(4aH)-yl)methanone] | 16
8 | COc1ccc2c(c1)CO[C@H]1CCCN(C(=O)c3ccc4nc(N)c5cnn(C)c5c4c3)[C@@H]21 (racemic) [Example Ca-8, Rac-(4-amino-1-methyl-1H-pyrazolo[4,3-c]quinolin-8-yl)((4aS,10bS)-8-methoxy-2,3,4,4a,6,10b-hexahydro-1H-isochromeno[4,3-b]pyridin-1-yl)methanone] | 23
9 | CN(C(=O)c1cc2c(cn1)nc(N)c1cnn(C)c12)[C@H]1c2ccc(C(F)(F)F)cc2[C@H]2C[C@H]21 (single isomer, unassigned) [Example Ca-26] | 25
10 | Cn1ncc2c(N)nc3cc(F)c(C(=O)N4CCC[C@@H]5Oc6cc(-c7cnn(C(F)(F)F)c7)ccc6[C@@H]54)cc3c21 [Example Ca-56, (4-amino-7-fluoro-1-methyl-1H-pyrazolo[4,3-c]quinolin-8-yl)((4aS,9bS)-7-(1-(trifluoromethyl)-1H-pyrazol-4-yl)-3,4,4a,9b-tetrahydrobenzofuro[3,2-b]pyridin-1(2H)-yl)methanone] | 4
11 | Cn1ncc2c3cc(C(=O)N4CCC[C@@H]5Oc6cc(C(F)(F)F)cc(F)c6[C@@H]54)ncc3nc(N)c21 [Example Ca-52, (4-amino-3-methyl-3H-pyrazolo[3,4-c][1,7]naphthyridin-8-yl)((4aS,9bS)-9-fluoro-7-(trifluoromethyl)-3,4,4a,9b-tetrahydrobenzofuro[3,2-b]pyridin-1(2H)-yl)methanone] | 48
12 | Cn1ncc2c(N)nc3cnc(C(=O)N4CCC[C@@H]5Cc6cc(C(F)(F)F)ccc6[C@@H]54)cc3c21 (racemic) [Example Ca-24, (Rac)-(4-amino-1-methyl-1H-pyrazolo[4,3-c][1,7]naphthyridin-8-yl)((4aR,9bR)-7-(trifluoromethyl)-2,3,4,4a,5,9b-hexahydro-1H-indeno[1,2-b]pyridin-1-yl)methanone] | 42
13 | CN(C(=O)c1cc2c(cn1)nc(N)c1cnn(C)c12)[C@@H]1c2ccc(C(F)(F)F)cc2[C@H]2C[C@H]21 (single isomer, unassigned) [Example Ca-27] | 88
14 | Cn1ncc2c(N)nc3cnc(C(=O)N4CCO[C@@H]5Cc6cc(C(F)(F)F)cc(F)c6[C@@H]54)cc3c21 [Example Ca-51, (4-amino-1-methyl-1H-pyrazolo[4,3-c][1,7]naphthyridin-8-yl)((4aS,9aR)-5-fluoro-7-(trifluoromethyl)-2,3,9,9a-tetrahydroindeno[2,1-b][1,4]oxazin-4(4aH)-yl)methanone] | 195
15 | Cn1ncc2c(N)nc3cnc(C(=O)N4CC[C@H]5C[C@@H]4c4ccc(OC(F)F)cc45)cc3c21 [Example Ca-15, (4-amino-1-methyl-1H-pyrazolo[4,3-c][1,7]naphthyridin-8-yl)((1R,5S)-7-(difluoromethoxy)-1,3,4,5-tetrahydro-2H-1,5-methanobenzo[c]azepin-2-yl)methanone] | 10
16 | Cn1ncc2c(N)nc3ccc(C(=O)N4CCO[C@@H]5Cc6cc(C(F)(F)F)ccc6[C@@H]54)cc3c21 (racemic) [Example Ca-11, (Rac)-(4-amino-1-methyl-1H-pyrazolo[4,3-c]quinolin-8-yl)(7-(trifluoromethyl)-2,3,9,9a-tetrahydroindeno[2,1-b][1,4]oxazin-4(4aH)-yl)methanone] | 65
17 | CN(C(=O)c1cc2c(cn1)nc(N)c1cnn(C)c12)[C@@H]1c2ccc(C(F)(F)F)cc2[C@@H]2C[C@H]12 (single isomer, unassigned) [Example Ca-28] | 1290
18 | Nc1nc2cnc(C(=O)N3CC[C@H]4C[C@@H]3c3ccc(OC(F)(F)F)cc3O4)cc2c2c1COC2 [Example Ca-46, (4-amino-1,3-dihydrofuro[3,4-c][1,7]naphthyridin-8-yl)((2S,6R)-9-(trifluoromethoxy)-3,4-dihydro-2H-2,6-methanobenzo[b][1,5]oxazocin-5(6H)-yl)methanone] | 25
19 | Cn1ncc2c(N)nc3ccc(C(=O)N4CCC[C@@H]5Oc6cc(C(F)(F)F)ccc6[C@@H]54)cc3c21 [Example Ca-5, (4-amino-1-methyl-1H-pyrazolo[4,3-c]quinolin-8-yl)((4aS,9bS)-7-(trifluoromethyl)-3,4,4a,9b-tetrahydrobenzofuro[3,2-b]pyridin-1(2H)-yl)methanone] | 8
20 | C[C@H]1CN(C(=O)c2cc3c4c(c(N)nc3cn2)COC4)[C@H]2c3ccc(C(F)(F)F)cc3C[C@H]2O1 [Example Cb-1, (4-amino-1,3-dihydrofuro[3,4-c][1,7]naphthyridin-8-yl)((2S,4aS,9aR)-2-methyl-7-(trifluoromethyl)-2,3,9,9a-tetrahydroindeno[2,1-b][1,4]oxazin-4(4aH)-yl)methanone] | 71
21 | Cn1ncc2c(N)nc3cnc(C(=O)N4CC[C@H]5C[C@@H]4c4ccc(C(F)(F)F)cc4O5)cc3c21 [Example Ca-45, (4-amino-1-methyl-1H-pyrazolo[4,3-c][1,7]naphthyridin-8-yl)((2S,6R)-9-(trifluoromethyl)-3,4-dihydro-2H-2,6-methanobenzo[b][1,5]oxazocin-5(6H)-yl)methanone] | 5
22 | C[C@H]1CN(C(=O)c2cc3c(cn2)nc(N)c2cnn(C)c23)[C@H]2c3ccc(Cl)cc3C[C@H]2O1 (single isomer, unassigned) [Example Ca-38] | 129
23 | Cn1ncc2c(N)nc3cnc(C(=O)N4CCO[C@@H]5Cc6cc(Cl)ccc6[C@@H]54)cc3c21 [Example Ca-35, (4-amino-1-methyl-1H-pyrazolo[4,3-c][1,7]naphthyridin-8-yl)((4aS,9aR)-7-chloro-2,3,9,9a-tetrahydroindeno[2,1-b][1,4]oxazin-4(4aH)-yl)methanone] | 36
24 | Nc1nc2cnc(C(=O)N3CCC[C@@H]4Oc5cc(C(F)(F)F)ccc5[C@@H]43)cc2c2c1COC2 (racemic) [Example Ca-1, (Rac)-(4-amino-1,3-dihydrofuro[3,4-c][1,7]naphthyridin-8-yl)((4aS,9bS)-7-(trifluoromethyl)-3,4,4a,9b-tetrahydrobenzofuro[3,2-b]pyridin-1(2H)-yl)methanone] | 26
25 | Cn1ncc2c(N)nc3cnc(C(=O)N4CC[C@@H]5C[C@H]4c4ccc(OC(F)F)cc45)cc3c21 [Example Ca-16, (4-amino-1-methyl-1H-pyrazolo[4,3-c][1,7]naphthyridin-8-yl)((1S,5R)-7-(difluoromethoxy)-1,3,4,5-tetrahydro-2H-1,5-methanobenzo[c]azepin-2-yl)methanone] | 91
26 | C[C@@H]1CN(C(=O)c2cc3c(cn2)nc(N)c2cnn(C)c23)[C@H]2c3ccc(Br)c(F)c3C[C@H]2O1 (single isomer, unassigned) [Example Ca-30] | 75
